Like-named read-outs stand apart in the source and are kept apart here.
Legend:
IMP-1 = IMP-1 (Serratia marcescens, UniProt P52699); assay: biochemical; type: biochemical; settings: fluorescence assay, CCF2-FA substrate, 2 pM enzyme, 2 hours at 25° C.; read-out: IMP-1 IC50
Procedure, shortened: (§1)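 Fluorescence assay, CCF2-FA substrate (cephalosporin core linking 7-hydroxycoumarin to fluorescein); inhibitor + MBL + substrate, 2 h, 25° C. IC50 by 4-parameter fit, semi-log plot.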

NDM-1 = NDM-1 (Klebsiella pneumoniae, UniProt C7C422); assay: biochemical; type: biochemical; settings: fluorescence assay, CCF2-FA substrate, 1 pM enzyme, 2 hours at 25° C.; read-out: NDM-1 IC50
Procedure, shortened: as §1

VIM-1 = VIM-1 (Pseudomonas aeruginosa (strain ATCC 15692 / DSM 22644 / CIP 104116 / JCM 14847 / LMG 12228 / 1C / PRS 101 / PAO1), UniProt A0A0F7KYQ8); assay: biochemical; settings: CCF2-FA substrate, 30 pM enzyme, 2 hours at 25° C.
Procedure, shortened: as §1

[1] = tested on: Escherichia coli expressing NDM-1 (CLB30005, CLB30016); type: cell-based; settings: NDM-1 strain, with imipenem 1 μg/ml, 95% inhibition of growth
Procedure, shortened: (§2)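 Growth by absorbance after 22–24 h at 35°C defined the read-out, with imipenem fixed at 1 μg/ml alongside compound. Inocula came from overnight blood-agar colonies at 35°C, resuspended in saline and diluted 1:100 in 1.1×CAMHB.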

[2] = tested on: Klebsiella pneumoniae expressing VIM-1 (IHMA599644); type: cell-based; settings: VIM-1 strain IHMA599644, with imipenem 1 μg/ml, 95% inhibition of growth
Procedure, shortened: as §2

[3] = tested on: Serratia marcescens expressing IMP-1 (CL5741); type: cell-based; settings: IMP-1 strain CL5741, with imipenem 1 μg/ml, 95% inhibition of growth
Procedure, shortened: as §2

[4] = tested on: Pseudomonas aeruginosa efflux+ (MB9798), IMP-1; type: cell-based; settings: concentration restoring susceptibility to imipenem at 2 μg/mL in the presence of a class A, C, D serine β-lactamase inhibitor closely related to relebactam
Procedure, shortened: (§3)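 P. aeruginosa PAO1-derived IMP-1 strains, efflux+ MB9798 and efflux− MB9799, tested by standard microbroth MIC with imipenem and/or ceftazidime fixed, usually at CLSI breakpoint, plus fixed class A/C β-lactamase inhibitor against AmpC. Inhibitor titrated; concentration restoring susceptibility recorded; MB9798/MB9799 fold difference indicates efflux.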

[5] = tested on: Pseudomonas aeruginosa efflux− (MB9799), IMP-1; type: cell-based; settings: concentration restoring susceptibility to imipenem at 2 μg/mL in the presence of a class A, C, D serine β-lactamase inhibitor closely related to relebactam
Procedure, shortened: as §3

[6] = tested on: Pseudomonas aeruginosa MB9798 vs MB9799; settings: ratio MITC95 PA_9798/MITC95 PA_9799
Procedure, shortened: as §3

[7] = fluorescence assay, read-out: VIM-1 IC50

Chain of NDM-1 (C7C422 whole entry, looked up, species assumed): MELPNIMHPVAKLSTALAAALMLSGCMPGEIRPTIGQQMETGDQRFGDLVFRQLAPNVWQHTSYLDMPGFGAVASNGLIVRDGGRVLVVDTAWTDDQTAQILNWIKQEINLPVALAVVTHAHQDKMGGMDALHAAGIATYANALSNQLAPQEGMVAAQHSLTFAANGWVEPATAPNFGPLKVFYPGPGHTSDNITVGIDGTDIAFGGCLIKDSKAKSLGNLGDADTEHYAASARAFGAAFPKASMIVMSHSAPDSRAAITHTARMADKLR
Chain of IMP-1 (P52699 whole entry, looked up, species assumed): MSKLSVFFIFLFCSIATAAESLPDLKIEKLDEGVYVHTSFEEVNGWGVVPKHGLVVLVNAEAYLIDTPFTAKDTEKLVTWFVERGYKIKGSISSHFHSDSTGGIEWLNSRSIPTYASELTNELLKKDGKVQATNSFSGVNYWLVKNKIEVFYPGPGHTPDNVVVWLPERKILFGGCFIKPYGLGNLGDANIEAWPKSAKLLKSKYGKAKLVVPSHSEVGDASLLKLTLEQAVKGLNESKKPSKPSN

Compound | IC50 (IMP-1) | IC50 (NDM-1) | IC50 (VIM-1; VIM-1 IC50, fluorescence assay) | Escherichia coli MITC95 [1] | Klebsiella pneumoniae MITC95 [2] | Serratia marcescens MITC95 [3] | P. aeruginosa expressing IMP-1, efflux + (MB9798) MITC95 [4] | P. aeruginosa expressing IMP-1, efflux − (MB9799) MITC95 [5] | Efflux ratio [6] | IC50 (VIM-1; [7])
NCCn1nc2cccc(-c3ccc(S(=O)(=O)N[C@@H]4CCNC4)c(S(N)(=O)=O)c3-c3nn[nH]n3)c2n1 [Example 279, (R)-4-(2-(2-aminoethyl)-2H-benzo[d][1,2,3]triazol-4-yl)-N1-(pyrrolidin-3-yl)-3-(2H-tetrazol-5-yl)benzene-1,2-disulfonamide] | 3.03 nM | 0.232 nM | 0.133 nM | 0.7813 µM | 0.7813 µM | 0.7813 µM | 0.7813 µM | 0.7813 µM | 1.00 | –
CNc1nc2c(-c3ccc(S(=O)(=O)N[C@@H]4CCNC4)c(S(N)(=O)=O)c3-c3nn[nH]n3)cccc2[nH]1 [Example 280, (R)-4-(2-(methylamino)-1H-benzo[d]imidazol-4-yl)-N1-(pyrrolidin-3-yl)-3-(2H-tetrazol-5-yl)benzene-1,2-disulfonamide] | 0.61 nM | 0.0408 nM | – | 0.7813 µM | 1.563 µM | 0.7813 µM | 0.3906 µM | 0.7813 µM | 0.50 | 0.158 nM
Cn1nc2cccc(-c3ccc(S(=O)(=O)N[C@@H]4CCNC4)c(S(N)(=O)=O)c3-c3nn[nH]n3)c2n1 [Example 281, (R)-4-(2-methyl-2H-benzo[d][1,2,3]triazol-4-yl)-N1-(pyrrolidin-3-yl)-3-(2H-tetrazol-5-yl)benzene-1,2-disulfonamide] | 0.75 nM | 0.0166 nM | – | 1.563 µM | 3.125 µM | 1.563 µM | 3.125 µM | 1.563 µM | 2.00 | 0.0515 nM
NS(=O)(=O)c1c(S(=O)(=O)N[C@@H]2CCNC2)ccc(-c2cnc3cc[nH]c3c2)c1-c1nn[nH]n1 [Example 282, (R)-N1-(pyrrolidin-3-yl)-4-(1H-pyrrolo[3,2-b]pyridin-6-yl)-3-(2H-tetrazol-5-yl)benzene-1,2-disulfonamide] | 1.13 nM | 0.0446 nM | 0.133 nM | 0.7813 µM | 1.563 µM | 0.7813 µM | 0.7813 µM | 0.7813 µM | 1.00 | –
NCc1nc2c(-c3ccc(S(=O)(=O)N[C@@H]4CCNC4)c(S(N)(=O)=O)c3-c3nn[nH]n3)cccc2[nH]1 [Example 283, (R)-4-(2-(aminomethyl)-1H-benzo[d]imidazol-4-yl)-N1-(pyrrolidin-3-yl)-3-(2H-tetrazol-5-yl)benzene-1,2-disulfonamide] | 1.2 nM | 0.0721 nM | – | 0.7813 µM | 1.172 µM | 0.6836 µM | 0.7813 µM | 0.7813 µM | 1.00 | 0.124 nM
Cc1ccc(-c2ccc(S(=O)(=O)N[C@@H]3CCNC3)c(S(N)(=O)=O)c2-c2nn[nH]n2)c2nc(N)[nH]c12 [Example 285, (R)-4-(2-amino-7-methyl-1H-benzo[d]imidazol-4-yl)-N1-(pyrrolidin-3-yl)-3-(2H-tetrazol-5-yl)benzene-1,2-disulfonamide] | 0.318 nM | 0.0295 nM | 0.0916 nM | 0.7813 µM | 0.7813 µM | 0.7813 µM | 0.3906 µM | 0.3906 µM | 1.00 | –
Nc1ccc2cccc(-c3ccc(S(=O)(=O)N[C@@H]4CCNC4)c(S(N)(=O)=O)c3-c3nn[nH]n3)c2n1 [Example 286, (R)-4-(2-aminoquinolin-8-yl)-N1-(pyrrolidin-3-yl)-3-(2H-tetrazol-5-yl)benzene-1,2-disulfonamide] | 0.122 nM | 0.0207 nM | – | 1.953 µM | 1.172 µM | 0.7813 µM | 0.9766 µM | 0.7813 µM | 1.25 | 0.0877 nM
NS(=O)(=O)c1c(S(=O)(=O)N[C@@H]2CCNC2)ccc(-c2cccc3ncccc23)c1-c1nn[nH]n1 [Example 287, (R)-N1-(pyrrolidin-3-yl)-4-(quinolin-5-yl)-3-(2H-tetrazol-5-yl)benzene-1,2-disulfonamide] | 0.617 nM | 0.0422 nM | – | 1.563 µM | 3.125 µM | 1.563 µM | 1.563 µM | 1.563 µM | 1.00 | 0.165 nM
Nc1cc(-c2ccc(S(=O)(=O)N[C@@H]3CCNC3)c(S(N)(=O)=O)c2-c2nn[nH]n2)ccn1 [Example 288, (R)-4-(2-aminopyridin-4-yl)-N1-(pyrrolidin-3-yl)-3-(2H-tetrazol-5-yl)benzene-1,2-disulfonamide] | 0.462 nM | 0.0985 nM | – | 0.7813 µM | 1.563 µM | 1.563 µM | 1.563 µM | 0.7813 µM | 2.00 | 0.0781 nM
NCCn1nnc2c(-c3ccc(S(=O)(=O)N[C@@H]4CCNC4)c(S(N)(=O)=O)c3-c3nn[nH]n3)cccc21 [Example 289] | 1.22 nM | 0.249 nM | – | 0.7813 µM | 1.563 µM | 1.563 µM | 1.563 µM | 0.7813 µM | 2.00 | 0.104 nM
NCc1csc(Nc2cccc(-c3ccc(S(=O)(=O)N[C@@H]4CCNC4)c(S(N)(=O)=O)c3-c3nn[nH]n3)c2)n1 [Example 290, (R)-3′-((4-(aminomethyl)thiazol-2-yl)amino)-N4-(pyrrolidin-3-yl)-2-(2H-tetrazol-5-yl)-[1,1′-biphenyl]-3,4-disulfonamide] | 0.448 nM | 0.0873 nM | 0.104 nM | 0.1953 µM | 0.7813 µM | 0.7813 µM | 0.7813 µM | 0.3906 µM | 2.00 | –
NS(=O)(=O)c1c(S(=O)(=O)N[C@@H]2CCNC2)ccc(-c2cccn3ccnc23)c1-c1nn[nH]n1 [Example 291, (R)-4-(imidazo[1,2-a]pyridin-8-yl)-N1-(pyrrolidin-3-yl)-3-(2H-tetrazol-5-yl)benzene-1,2-disulfonamide] | 0.169 nM | 0.0505 nM | 0.0694 nM | 0.7813 µM | 3.125 µM | 1.563 µM | 0.7813 µM | 0.7813 µM | 1.00 | –
NC(=O)c1nc2c(-c3ccc(S(=O)(=O)N[C@H]4CCNC4)c(S(N)(=O)=O)c3-c3nn[nH]n3)cccc2[nH]1 [Example 292, (S)-4-(4-(N-(pyrrolidin-3-yl)sulfamoyl)-3-sulfamoyl-2-(2H-tetrazol-5-yl)phenyl)-1H-benzo[d]imidazole-2-carboxamide] | 0.672 nM | 0.0453 nM | – | 1.563 µM | 3.125 µM | 3.125 µM | 0.7813 µM | 1.563 µM | 0.50 | 0.146 nM

From patent publication US10221163B2 (priority 2015, dated 2019)
